ChEMBL document CHEMBL3091440, “Heptaoxygenated xanthones as anti-austerity agents from Securidaca longepedunculata” (2013)
Active and inactive are the calls of the source. No cut-off for these calls is given here.

Experiments:
PANC-1 [1] = test: (§1) Cytotoxicity against human PANC1 cells assessed as cell viability after 24 hrs by WST8 assay; type: functional
[2] = as §1; type: functional, PANC-1
PANC-1 [3] = test: Induction of apoptosis in human PANC1 cells at 50 uM after 24 hrs by phase contrast microscopy; type: functional, cell-based
PANC-1 [4] = test: Induction of apoptosis in human PANC1 cells grown in glucose/amino acid deprived medium after 24 hrs by phase contrast microscopy; type: functional, cell-based
PANC-1 [5] = test: Induction of apoptosis in human PANC1 cells at 50 uM after 24 hrs by Annexin V/propidium iodide staining-based fluorescence microscopy; type: functional, cell-based
PANC-1 [6] = test: Induction of apoptosis in human PANC1 cells grown in glucose deprived medium after 24 hrs by phase contrast microscopy; type: functional, cell-based

| SMILES | Activity (PANC-1 [1]) | PC50 [2] [µM] | Activity (PANC-1 [3]) | Activity (PANC-1 [4]) | Activity (PANC-1 [5]) | Activity (PANC-1 [6]) |
| --- | --- | --- | --- | --- | --- | --- |
| COc1c(O)ccc(C(=O)c2ccccc2)c1OC | Dose-dependent effect | 81.3 | – | – | – | – |
| COc1cc(OC)c2c(=O)c3c(OC)c(OC)ccc3oc2c1OC | Dose-dependent effect | 93.6 | – | – | – | – |
| COc1cc(OC)c2c(=O)c3c(OC)c(O)ccc3oc2c1 | Dose-dependent effect | >100 | – | – | – | – |
| COc1c(OC)c(O)c2c(=O)c3c(O)cc(O)c(OC)c3oc2c1OC | Dose-dependent effect | 22.7 | inactive | Dose-dependent effect | Active | – |
| COc1cc(O)c2c(=O)c3c(OC)c(OC)c(OC)c(O)c3oc2c1OC | Dose-dependent effect | >100 | – | – | – | – |
| COc1c(OC)c(O)c2c(=O)c3c(OC)cc(O)c(OC)c3oc2c1OC | Dose-dependent effect | 17.4 | inactive | – | Active | Dose-dependent effect |
| COc1c(C(=O)c2ccccc2)ccc2c1OCO2 | Dose-dependent effect | >100 | – | – | – | – |
| COc1cc(OC)c2c(=O)c3ccc(O)c(OC)c3oc2c1 | Dose-dependent effect | 93.1 | – | – | – | – |
| COc1c(OC)c(OC)c2c(=O)c3c(O)cc(O)c(OC)c3oc2c1O | Dose-dependent effect | >100 | – | – | – | – |
| COc1ccc2oc3cccc(O)c3c(=O)c2c1 | Dose-dependent effect | 42.7 | – | – | – | – |
| COc1cc(O)c2c(=O)c3cc(O)ccc3oc2c1 | Dose-dependent effect | >100 | – | – | – | – |
| O=c1c2ccc(O)c(O)c2oc2cccc(O)c12 | Dose-dependent effect | >100 | – | – | – | – |
| COc1cc(O)c2c(=O)c3c(OC)c(O)ccc3oc2c1OC | Dose-dependent effect | 87.4 | – | – | – | – |
| COc1c(O)cc2oc3ccccc3c(=O)c2c1O | Dose-dependent effect | 81.2 | – | – | – | – |
| COc1cc(C[C@H]2C(=O)OC[C@@H]2Cc2ccc(OC)c(OC)c2)ccc1O [ARCTIGENIN] | – | 0.5 | – | – | – | – |
| COc1c(O)ccc(C(=O)c2ccccc2)c1O | Dose-dependent effect | >100 | – | – | – | – |
| COc1ccc2oc3cc(O)cc(OC)c3c(=O)c2c1OC | Dose-dependent effect | >100 | – | – | – | – |
| COc1cccc(C(=O)c2ccc(O)cc2O)c1 | Dose-dependent effect | >100 | – | – | – | – |
| O=c1c2ccc(O)cc2oc2cccc(O)c12 | Dose-dependent effect | >100 | – | – | – | – |
| COc1cc(OC)c(C(=O)c2ccccc2)cc1OC | Dose-dependent effect | >100 | – | – | – | – |
| COc1cc(O)c2c(=O)c3c(OC)c4c(c(OC)c3oc2c1OC)OCO4 | Dose-dependent effect | 78.1 | – | – | – | – |
| COc1cc2oc3cccc(OC)c3c(=O)c2cc1OC | Dose-dependent effect | >100 | – | – | – | – |
| COc1c(O)cccc1C(=O)OCc1ccccc1 | Dose-dependent effect | >100 | – | – | – | – |
| COc1cc(O)c2c(=O)c3c(OC)cc(OC)cc3oc2c1 | Dose-dependent effect | >100 | – | – | – | – |
| COc1cc(OC)c2c(=O)c3ccc(O)c(O)c3oc2c1 | Dose-dependent effect | >100 | – | – | – | – |
| COc1cccc(O)c1C(=O)O | Dose-dependent effect | >100 | – | – | – | – |
| CC(=O)O[C@H]1C(=O)[C@@]2(C)[C@H]([C@H](OC(=O)c3ccccc3)[C@]3(O)C[C@H](OC(=O)[C@H](O)[C@@H](NC(=O)c4ccccc4)c4ccccc4)C(C)=C1C3(C)C)[C@]1(OC(C)=O)CO[C@@H]1C[C@@H]2O [PACLITAXEL] | – | >100 | – | – | – | – |
| COc1cc(O)c2c(=O)c3c(OC)c(OC)ccc3oc2c1OC | Dose-dependent effect | 73.3 | – | – | – | – |
| COc1ccc2oc3ccc(O)c(OC)c3c(=O)c2c1O | Dose-dependent effect | 51.4 | – | – | – | – |
| COc1cccc(O)c1C(=O)OCc1ccccc1 | Dose-dependent effect | >100 | – | – | – | – |
